The values below come from patent EP2832223A1, “HERBICIDAL COMPOSITION” (Ishihara Sangyo Kaisha, Ltd., priority 2012, dated 2013).

What all share (format): in vivo
Assay [1] deals with rostrate sesbania (Sesbania rostrata Bremek. & Oberm.). Briefly: Test Example 8: pot test, soil treatment, visual growth inhibition. As to conditions: 2000 g/ha, soil treatment, 28th day after treatment, read-out: Growth inhibition rate (%) of rostrate sesbania Measured value. The procedure:
Upland field soil was put into a 1/300,000 ha pot, and seeds of rostrate sesbania (Sesbania rostrata Bremek. & Oberm.) were sown. On the next day, predetermined amounts of ONEHOPE NYUZAI (tradename), Click (tradename), Spectrum (tradename) and Clio (tradename) were diluted with water (in an amount corresponding to 1,000 L/ha) and applied for soil treatment by a small sprayer.
On the 28th day after treatment, the state of growth of the rostrate sesbania was visually observed to determine the growth inhibition rate (%). The growth inhibition rate (%) (measured value) and the growth inhibition rate (%) calculated in the same manner as in the above Test Example 1 are shown in Table 8.

For assay [2], the system named is guinea grass (Panicum maximum Jacq.). Briefly: Test Example 17: pot test, soil and foliar treatment, visual growth inhibition. To be noted: Megathyrsus maximus, 1000 g/ha, 29th day after treatment, read-out: Growth inhibition rate (%) of guinea grass Measured value. The procedure: Upland field soil was put into a 1/1,000,000 ha pot, and seeds of guinea grass (Panicum maximum Jacq.) were sown. When the guinea grass reached 5.2 to 6.0-leaf stage, seeds of guinea grass were further sown in the same pot assuming conditions such that weeds would later grow. Three days later, predetermined amounts of ONEHOPE NYUZAI (tradename), Click (tradename) and Spectrum (tradename) were diluted with water in an amount corresponding to 300 L/ha and applied for soil treatment and for foliar treatment by a small sprayer.
On the 29th day after treatment, the state of growth of the guinea grass was visually observed to determine the growth inhibition rate (%). The growth inhibition rate (%) (measured value) and the growth inhibition rate (%) calculated in the same manner as in the above Test Example 1 are shown in Table 17.

Assay [3] deals with common cocklebur (Xanthium strumarium L.). In words: Test Example 1: pot test, foliar treatment, visual growth inhibition. To be noted: 1000 g/ha, foliar treatment at 4.3 to 4.8-leaf stage, 22nd day after treatment, read-out: Growth inhibition rate (%) of common cocklebur Measured value. The text has this: In the present invention, a synergistic effect means a higher herbicidal activity of three active ingredients combined, than the simple sum of the respective herbicidal activities of the three active ingredients (the expected activity). The activity expected by the combination of three active ingredients can be calculated as follows (Colby S.R., "Weed", vol. 15, p. 20-22, 1967). […] Upland field soil was put into a 1/300,000 ha pot, and seeds of common cocklebur (Xanthium strumarium L.) were sown. […] Click, manufactured by BASF) and EC formulation containing dimethenamid-P as an active ingredient (tradename: Spectrum, manufactured by BASF) were diluted with water (in an amount corresponding to 1,000 L/ha) and applied for foliar treatment by a small sprayer. On the 22nd day after treatment, the state of growth of the common cocklebur was visually observed to determine the growth inhibition rate (%) in accordance with the following evalution standard. The growth inhibition rate (%) (measured value) and the growth inhibition rate (%) (calculated value) calculated by the Colby's formula are shown in Table 1.

The subject of assay [4] is prickly sida (Sida spinosa L.). Briefly: Test Example 10: pot test, soil treatment, visual growth inhibition. As to conditions: 200 g/ha, soil treatment, 28th day after treatment, read-out: Growth inhibition rate (%) of prickly sida Measured value. As to the method:
Upland field soil was put into a 1/300,000 ha pot, and seeds of prickly sida (Sida spinosa L.) were sown. On the next day, predetermined amounts of ONEHOPE NYUZAI (tradename), Click (tradename), Spectrum (tradename), Callisto (tradename) and Clio (tradename) were diluted with water (in an amount corresponding to 1,000 L/ha) and applied for soil treatment by a small sprayer.
On the 28th day after treatment, the state of growth of the prickly sida was visually observed to determine the growth inhibition rate (%). The growth inhibition rate (%) (measured value) and the growth inhibition rate (%) calculated in the same manner as in the above Test Example 1 are shown in Table 10.

The test system of assay [5] is guinea grass (Panicum maximum Jacq.). In words: Test Example 15: pot test, soil and foliar treatment, visual growth inhibition. To be noted: Megathyrsus maximus, 31st day after treatment, read-out: Growth inhibition rate (%) of guinea grass Measured value. As to the method:
(§1) Upland field soil was put into a 1/1,000,000 ha pot, and seeds of guinea grass (Panicum maximum Jacq.) were sown. When the guinea grass reached 5.2 to 6.0-leaf stage, seeds of guinea grass were further sown in the same pot assuming conditions such that weeds would later grow. On the next day, predetermined amounts of ONEHOPE NYUZAI (tradename), Click (tradename), Spectrum (tradename) and Cadou (tradename) were diluted with water in an amount corresponding to 300 L/ha and applied for soil treatment and for foliar treatment by a small sprayer.
On the 31 st day after treatment, the state of growth of the guinea grass was visually observed to determine the growth inhibition rate (%). The growth inhibition rate (%) (measured value) and the growth inhibition rate (%) calculated in the same manner as in the above Test Example 1 are shown in Table 15.

Assay [6] relates to Japanese millet (Echinochloa utilis Ohwi et Yabuno). Briefly: Test Example 13: pot test, soil and foliar treatment, visual growth inhibition. To be noted: read-out: Growth inhibition rate (%) of Japanese millet Measured value. The procedure:
Upland field soil was put into a 1/1,000,000 ha pot, and seeds of Japanese millet (Echinochloa utilis Ohwi et Yabuno) were sown. When the Japanese millet reached 3.8 to 4.0-leaf stage, seeds of Japanese millet were further sown in the same pot. On the next day, predetermined amounts of ONEHOPE NYUZAI (tradename), Click (tradename) and a wettable powder containing bicyclopyrone prepared in accordance with a conventional formulation method were diluted with water (in an amount corresponding to 1,000 L/ha) and applied for soil treatment and for foliar treatment by a small sprayer.
On the 28th day after treatment, the state of growth of the Japanese millet was visually observed to determine the growth inhibition rate (%). The growth inhibition rate (%) (measured value) and the growth inhibition rate (%) calculated in the same manner as in the above Test Example 1 are shown in Table 13.

The test system of assay [7] is velvetleaf (Abutilon theophrasti Medic.). Briefly: Test Example 14: pot test, soil and foliar treatment, visual growth inhibition. To be noted: read-out: Growth inhibition rate (%) of velvetleaf Measured value.
Text: as §1, with “velvetleaf (Abutilon theophrasti Medic.)” for “guinea grass (Panicum maximum Jacq.)”, “velvetleaf” for “guinea grass”, “4.0” for “5.2”, “4.3-leaf” for “6.0-leaf”, “Callisto (tradename), Mikado (tradename), a wettable powder containing bicyclopyrone as an active ingredient” for “Spectrum (tradename)”, “Clio” for “Cadou”
On the 31 st day after treatment, the state of growth of the velvetleaf was visually observed to determine the growth inhibition rate (%). The growth inhibition rate (%) (measured value) and the growth inhibition rate (%) calculated in the same manner as in the above Test Example 1 are shown in Table 14.

Assay [8] deals with annual ragweed (Ambrosia artemisiifolia L.). In words: Test Example 11: pot test, soil treatment, visual growth inhibition. To be noted: soil, read-out: Growth inhibition rate (%) of annual ragweed Measured value. As to the method:
Upland field soil was put into a 1/300,000 ha pot, and seeds of annual ragweed (Ambrosia artemisiifolia L.) were sown. On the next day, predetermined amounts of ONEHOPE NYUZAI (tradename), Click (tradename), Mikado (tradename) and a wettable powder containing bicyclopyrone prepared in accordance with a conventional formulation method were diluted with water (in an amount corresponding to 1,000 L/ha) and applied for soil treatment by a small sprayer.
On the 28th day after treatment, the state of growth of the annual ragweed was visually observed to determine the growth inhibition rate (%). The growth inhibition rate (%) (measured value) and the growth inhibition rate (%) calculated in the same manner as in the above Test Example 1 are shown in Table 11.

Assay [9] has as its system wild oat (Avena fatua L.). Briefly: Test Example 4: pot test, soil treatment, visual growth inhibition. As to conditions: soil, read-out: Growth inhibition rate (%) of wild oat Measured value. The procedure: Upland field soil was put into a 1/1,000,000 ha pot, and seeds of wild oat (Avena fatua L.) were sown. On the next day, predetermined amounts of ONEHOPE NYUZAI (tradename), Click (tradename) and a wettable powder containing bicyclopyrone prepared in accordance with a conventional formulation method were diluted with water (in an amount corresponding to 1,000 L/ha) and applied for soil treatment by a small sprayer.
On the 28th day after treatment, the state of growth of the wild oat was visually observed to determine the growth inhibition rate (%). The growth inhibition rate (%) (measured value) and the growth inhibition rate (%) calculated in the same manner as in the above Test Example 1 are shown in Table 4.

Assay [10] deals with korean lespedeza (Kummerowia stipulacea (Maxim.) Makino). In words: Test Example 6: pot test, soil treatment, visual growth inhibition. To be noted: soil, read-out: Growth inhibition rate (%) of korean lespedeza Measured value. The procedure:
Upland field soil was put into a 1/300,000 ha pot, and seeds of korean lespedeza (Kummerowia stipulacea (Maxim.) Makino) were sown. On the next day, predetermined amounts of ONEHOPE NYUZAI (tradename), Click (tradename), Mikado (tradename) and a wettable powder containing bicyclopyrone prepared in accordance with a conventional formulation method were diluted with water (in an amount corresponding to 1,000 L/ha) and applied for soil treatment by a small sprayer.
On the 14th day after treatment, the state of growth of the korean lespedeza was visually observed to determine the growth inhibition rate (%). The growth inhibition rate (%) (measured value) and the growth inhibition rate (%) calculated in the same manner as in the above Test Example 1 are shown in Table 6.

The test system of assay [11] is Japanese millet (Echinochloa utilis Ohwi et Yabuno). Briefly: Test Example 9: pot test, soil treatment, visual growth inhibition. As to conditions: soil, read-out: Growth inhibition rate (%) of Japanese millet Measured value. The procedure: Upland field soil was put into a 1/300,000 ha pot, and seeds of Japanese millet (Echinochloa utilis Ohwi et Yabuno) were sown. On the next day, predetermined amounts of ONEHOPE NYUZAI (tradename), Click (tradename), Mikado (tradename) and a wettable powder containing bicyclopyrone prepared in accordance with a conventional formulation method were diluted with water (in an amount corresponding to 1,000 L/ha) and applied for soil treatment by a small sprayer.
On the 28th day after treatment, the state of growth of the Japanese millet was visually observed to determine the growth inhibition rate (%). The growth inhibition rate (%) (measured value) and the growth inhibition rate (%) calculated in the same manner as in the above Test Example 1 are shown in Table 9.

Assay [12] concerns velvetleaf (Abutilon theophrasti Medic.). Briefly: Test Example 16: pot test, soil and foliar treatment, visual growth inhibition. To be noted: read-out: Growth inhibition rate (%) of velvetleaf Measured value. The text has this:
Upland field soil was put into a 1/1,000,000 ha pot, and seeds of velvetleaf (Abutilon theophrasti Medic.) were sown. When the velvetleaf reached 4.0 to 4.3-leaf stage, seeds of velvetleaf were further sown in the same pot assuming conditions such that weeds would later grow. Three days later, predetermined amounts of ONEHOPE NYUZAI (tradename), Click (tradename), Callisto (tradename), Mikado (tradename), a wettable powder containing bicyclopyrone as an active ingredient and Clio (tradename) were diluted with water in an amount corresponding to 300 L/ha and applied for soil treatment and for foliar treatment by a small sprayer.
On the 29th day after treatment, the state of growth of the velvetleaf was visually observed to determine the growth inhibition rate (%). The growth inhibition rate (%) (measured value) and the growth inhibition rate (%) calculated in the same manner as in the above Test Example 1 are shown in Table 16.

Assay [13] deals with sunn-hemp (Crotalaria juncea L.). In words: Test Example 7: pot test, soil treatment, visual growth inhibition. To be noted: soil, read-out: Growth inhibition rate (%) of sunn-hemp Measured value. As to the method:
Upland field soil was put into a 1/300,000 ha pot, and seeds of sunn-hemp (Crotalaria juncea L.) were sown. On the next day, predetermined amounts of ONEHOPE NYUZAI (tradename), Click (tradename), Mikado (tradename) and a wettable powder containing bicyclopyrone prepared in accordance with a conventional formulation method were diluted with water (in an amount corresponding to 1,000 L/ha) and applied for soil treatment by a small sprayer.
On the 28th day after treatment, the state of growth of the sunn-hemp was visually observed to determine the growth inhibition rate (%). The growth inhibition rate (%) (measured value) and the growth inhibition rate (%) calculated in the same manner as in the above Test Example 1 are shown in Table 7.

Molecules are shown by their SMILES.

Take `COC[C@H](C)N(C(=O)CCl)c1c(C)csc1C` [Dimethenamid-P, (S)-2-chloro-N-(2,4-dimethyl-3-thienyl)-N-(2-methoxy-1-methylethyl)acetamide]: the inhibition – broadly, the change of the read-out against control, counted positive when it falls – at 2000 g/ha in assay [1] was determined as 40%. In addition, the inhibition at 1000 g/ha is 55% in [2], 0% in assay [3] and 60% in [5] (1000 g/ha). Further, in assay [4], the inhibition at 200 g/ha amounted to 0%. Further, in [5] (500 g/ha), the inhibition at 500 g/ha stood at 57%.
For the compound `COCCOCc1nc(C(F)(F)F)ccc1C(=O)C1=C(O)C2CCC(C2)C1=O` (stereo not drawn) [Bicyclopyrone, 4-hydroxy-3-{2-[(2-methoxyethoxy)methyl]-6-(trifluoromethyl)-3-pyridylcarbonyl}bicyclo[3.2.1]oct-3-en-2-one], the inhibition at 100 g/ha worked out at 78% in [6], 88% in assay [8] and 25% in assay [9]. Besides, in [7], the inhibition at 50 g/ha is 88%. The inhibition at 150 g/ha in assay [7] came out at 93%. Also, in assay [10], the inhibition at 400 g/ha came to 15%. Moreover, the values for the inhibition at 25 g/ha in assay [11] and in assay [13] were 83% and 20%, respectively. For the same compound, in [12], the inhibition at 75 g/ha was found to be 89%.
